Laboratory results from ChEMBL document CHEMBL3045250 (Med Chem Res, 2005).

target: T1, 5-hydroxytryptamine receptor 6 (Homo sapiens, UniProt P50406); test: Binding affinity to 5-HT6 receptor (unknown origin)
T1 sequence (P50406 whole entry): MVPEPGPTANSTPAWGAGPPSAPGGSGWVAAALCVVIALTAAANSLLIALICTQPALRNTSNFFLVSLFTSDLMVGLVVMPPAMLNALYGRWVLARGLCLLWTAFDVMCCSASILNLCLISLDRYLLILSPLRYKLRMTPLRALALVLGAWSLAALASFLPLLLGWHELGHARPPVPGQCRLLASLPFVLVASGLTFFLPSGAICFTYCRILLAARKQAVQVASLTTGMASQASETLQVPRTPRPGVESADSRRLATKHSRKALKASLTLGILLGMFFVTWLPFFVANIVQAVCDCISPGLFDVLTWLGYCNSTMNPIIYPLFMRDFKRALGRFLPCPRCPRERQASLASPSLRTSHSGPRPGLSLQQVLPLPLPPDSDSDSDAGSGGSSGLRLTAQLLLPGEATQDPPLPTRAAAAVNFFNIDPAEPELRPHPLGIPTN

Ki | SMILES
58 nM | CNc1cc(NS(=O)(=O)c2ccc(N)cc2)nc(NC)n1

target: T1, 5-hydroxytryptamine receptor 6; test: Displacement of [3H]LSD from Homo sapiens (human) 5-HT6 receptor expressed in Homo sapiens (human) HEK293 cells; type: cell-based

SMILES | Ki
CN(C)CCc1c[nH]c2ccncc12 | 100 nM
CN(C)CCc1cn(S(=O)(=O)c2ccccc2)c2ccncc12 | 84 nM
Cc1cn(S(=O)(=O)c2ccc(N)cc2)c2ccncc12 | 41 nM
NCCc1c(-c2ccccc2)[nH]c2ccncc12 | 2600 nM
CN(C)CCc1c(-c2ccccc2)[nH]c2ccncc12 | 270 nM
CCc1[nH]c2ccncc2c1CCN | 4900 nM
CCc1[nH]c2ccncc2c1CCN(C)C | 2900 nM
NCCc1c[nH]c2ccncc12 [5-Azatryptamine] | 64 nM
